Reference: patent publication US12581252B2, “Substituted pyrrolo[3,4-b]pyridines as PI3K-α inhibitors” (Relay Therapeutics, Inc., priority 2020, dated 2026)

Target: H1047R PIK3CA enzyme (Homo sapiens, UniProt P42336, H1047R)
Experiment: ADP-Glo Biochemical PIK3CA Kinase Assay

H1047R PIK3CA enzyme, sequence (P42336 whole entry H1047R): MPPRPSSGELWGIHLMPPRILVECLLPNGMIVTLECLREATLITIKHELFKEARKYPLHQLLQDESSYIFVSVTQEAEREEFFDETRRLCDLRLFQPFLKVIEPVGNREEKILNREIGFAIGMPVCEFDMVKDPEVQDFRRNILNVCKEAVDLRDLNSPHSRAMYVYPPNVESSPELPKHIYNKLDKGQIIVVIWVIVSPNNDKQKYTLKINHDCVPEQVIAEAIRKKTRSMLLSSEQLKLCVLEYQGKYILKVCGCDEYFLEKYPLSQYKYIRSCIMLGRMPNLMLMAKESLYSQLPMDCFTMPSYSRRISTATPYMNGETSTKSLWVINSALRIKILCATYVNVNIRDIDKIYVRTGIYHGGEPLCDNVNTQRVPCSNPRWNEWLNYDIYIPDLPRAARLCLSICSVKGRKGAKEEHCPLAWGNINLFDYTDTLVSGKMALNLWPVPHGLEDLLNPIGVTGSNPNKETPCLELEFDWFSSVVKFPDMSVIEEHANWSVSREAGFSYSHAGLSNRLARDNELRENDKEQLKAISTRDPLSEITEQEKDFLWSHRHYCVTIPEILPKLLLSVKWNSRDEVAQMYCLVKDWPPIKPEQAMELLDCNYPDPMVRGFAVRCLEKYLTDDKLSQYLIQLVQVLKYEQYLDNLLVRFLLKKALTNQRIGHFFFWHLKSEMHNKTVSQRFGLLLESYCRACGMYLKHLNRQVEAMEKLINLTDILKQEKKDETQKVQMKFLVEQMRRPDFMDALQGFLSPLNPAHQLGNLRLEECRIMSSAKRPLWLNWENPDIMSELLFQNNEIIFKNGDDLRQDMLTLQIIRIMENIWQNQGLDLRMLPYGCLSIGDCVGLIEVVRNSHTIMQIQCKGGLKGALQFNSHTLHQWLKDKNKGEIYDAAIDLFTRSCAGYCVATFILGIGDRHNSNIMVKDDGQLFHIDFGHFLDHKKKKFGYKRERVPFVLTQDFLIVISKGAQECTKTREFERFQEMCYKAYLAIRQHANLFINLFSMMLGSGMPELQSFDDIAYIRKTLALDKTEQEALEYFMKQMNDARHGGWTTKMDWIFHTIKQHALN
H1047R PIK3CA enzyme, sequence (P27986 whole entry partner): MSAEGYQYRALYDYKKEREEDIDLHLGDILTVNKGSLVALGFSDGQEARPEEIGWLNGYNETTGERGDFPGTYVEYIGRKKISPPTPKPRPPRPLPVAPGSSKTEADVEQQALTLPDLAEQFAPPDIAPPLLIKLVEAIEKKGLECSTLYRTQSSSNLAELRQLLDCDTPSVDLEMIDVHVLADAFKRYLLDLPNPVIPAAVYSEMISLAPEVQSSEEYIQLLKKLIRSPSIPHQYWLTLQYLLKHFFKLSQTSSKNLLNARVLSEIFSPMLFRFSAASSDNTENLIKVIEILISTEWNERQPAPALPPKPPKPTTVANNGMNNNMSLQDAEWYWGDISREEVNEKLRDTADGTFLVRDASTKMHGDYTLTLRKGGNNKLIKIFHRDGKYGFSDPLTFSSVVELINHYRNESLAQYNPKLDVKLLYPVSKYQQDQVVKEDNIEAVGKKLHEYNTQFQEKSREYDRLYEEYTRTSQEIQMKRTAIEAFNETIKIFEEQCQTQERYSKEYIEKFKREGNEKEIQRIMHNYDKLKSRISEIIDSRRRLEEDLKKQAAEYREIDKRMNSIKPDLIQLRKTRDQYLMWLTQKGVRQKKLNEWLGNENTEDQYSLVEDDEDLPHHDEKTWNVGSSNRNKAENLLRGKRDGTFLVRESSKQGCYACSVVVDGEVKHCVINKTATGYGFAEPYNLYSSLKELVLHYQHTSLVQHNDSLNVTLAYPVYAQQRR

| SMILES | IC50 [nM] |
| --- | --- |
| O=C(Nc1cc(CC(O)C(F)(F)F)cc2c1C(c1cc(F)ccc1Cl)NC2=O)c1cc(F)cc(C(F)(F)F)c1 (centres unmarked) [Compound I-1200] | ≤ 100 |
| O=C(Nc1cc(-c2csc(C(=O)O)n2)cc2c1C(c1cc(F)ccc1Cl)NC2=O)c1cc(F)cc(C(F)(F)F)c1 (centres unmarked) [Compound I-1201] | ≤ 100 |
| O=C(Nc1cc(Oc2ncccn2)cc2c1C(c1cc(F)ccc1Cl)NC2=O)c1cc(F)cc(C(F)(F)F)c1 (centres unmarked) [Compound I-1202] | 100 to 500 |
| O=C1NC(c2cc(F)ccc2Cl)c2c(NC(=O)C34CC5CC(C3)C(F)(F)C(C5)C4)cc(Br)cc21 (centres unmarked) [Compound I-1203] | 100 to 500 |
| O=C1NC(c2cc(F)ccc2Cl)c2c(NC(=O)C3(C(F)(F)F)CC3)cc(Br)cc21 (centres unmarked) [Compound I-1204] | 10000 to 100000 |
| N#CN1CC(Oc2cc(NC(=O)c3cc(F)cc(C(F)(F)F)c3)c3c(c2)C(=O)NC3c2cc(F)ccc2Cl)C1 (centres unmarked) [Compound I-1205] | ≤ 100 |
| O=C(Nc1cc(Br)cc2c1C(c1cc(F)ccc1Cl)NC2=O)Oc1ccc2c(n1)NCC2 (centres unmarked) [Compound I-1206] | 10000 to 100000 |
| Cn1c(Cl)cc(C(=O)Nc2cc(Br)cc3c2C(c2cc(F)ccc2Cl)NC3=O)cc1=O (centres unmarked) [Compound I-1209] | 10000 to 100000 |
| CC(O)(CC#N)c1cc(NC(=O)c2cc(F)cc(C(F)(F)F)c2)c2c(c1)C(=O)NC2c1cc(F)ccc1Cl (centres unmarked) [Compound I-1211] | ≤ 100 |
| O=C1Nc2cccc(NC(=O)c3cc(F)cc(C(F)(F)F)c3)c2C(c2ccccc2Cl)N1 (centres unmarked) [Compound I-1212] | 1000 to 10000 |
| O=C(Nc1cc(Nc2ccccc2)cc2c1C(c1cc(F)ccc1Cl)NC2=O)c1cc(F)cc(C(F)(F)F)c1 (centres unmarked) [Compound I-1213] | ≤ 100 |
| N#Cc1ncccc1-c1cc(NC(=O)c2cc(F)cc(C(F)(F)F)c2)c2c(c1)C(=O)NC2c1cc(F)ccc1Cl (centres unmarked) [Compound I-1214] | ≤ 100 |
| NC(=O)c1cnccc1-c1cc(NC(=O)c2cc(F)cc(C(F)(F)F)c2)c2c(c1)C(=O)NC2c1cc(F)ccc1Cl (centres unmarked) [Compound I-1215] | 100 to 500 |
| O=C(Nc1cc(-c2ccccc2C(=O)O)cc2c1C(c1cc(F)ccc1Cl)NC2=O)c1cc(F)cc(C(F)(F)F)c1 (centres unmarked) [Compound I-1216] | 100 to 500 |
| O=C(Nc1cc(-c2ccncc2C(=O)O)cc2c1C(c1cc(F)ccc1Cl)NC2=O)c1cc(F)cc(C(F)(F)F)c1 (centres unmarked) [Compound I-1217] | 100 to 500 |
| O=C(Nc1cc(C2CCCN2)cc2c1C(c1cc(F)ccc1Cl)NC2=O)c1cc(F)cc(C(F)(F)F)c1 (centres unmarked) [Compound I-1218] | ≤ 100 |
| COc1cnccc1-c1cc(NC(=O)c2cc(F)cc(C(F)(F)F)c2)c2c(c1)C(=O)NC2c1cc(F)ccc1Cl (centres unmarked) [Compound I-1219] | ≤ 100 |
| O=C(O)Cc1ccncc1-c1cc(NC(=O)c2cc(F)cc(C(F)(F)F)c2)c2c(c1)C(=O)NC2c1cc(F)ccc1Cl (centres unmarked) [Compound I-1220] | ≤ 100 |
| Cn1ncnc1COc1cc(NC(=O)c2cc(F)cc(C(F)(F)F)c2)c2c(c1)C(=O)NC2c1cc(F)ccc1Cl (centres unmarked) [Compound I-1221] | ≤ 100 |
| CN(C)c1ncc(-c2cc(NC(=O)c3cc(F)cc(C(F)(F)F)c3)c3c(c2)C(=O)NC3c2cc(F)ccc2Cl)cn1 (centres unmarked) [Compound I-1222] | ≤ 100 |
| O=C(Nc1cc(C#CC2COC2)cc2c1C(c1cc(F)ccc1Cl)NC2=O)c1cc(F)cc(C(F)(F)F)c1 (centres unmarked) [Compound I-1223] | ≤ 100 |
| O=C(Nc1cc(C#Cc2ccncc2)cc2c1C(c1cc(F)ccc1Cl)NC2=O)c1cc(F)cc(C(F)(F)F)c1 (centres unmarked) [Compound I-1224] | ≤ 100 |
| O=C(Nc1cc(C#Cc2cccnc2)cc2c1C(c1cc(F)ccc1Cl)NC2=O)c1cc(F)cc(C(F)(F)F)c1 (centres unmarked) [Compound I-1225] | ≤ 100 |
| O=C(Nc1cc(-c2ccc3ncnn3c2)nc2c1C(c1cc(F)ccc1Cl)NC2=O)c1cc(F)cc(C(F)(F)F)c1 (centres unmarked) [Compound I-1226] | ≤ 100 |

| SMILES | IC50 [nM] |
| --- | --- |
| O=C(Nc1cc(N2CCCc3ncccc32)cc2c1C(c1cc(F)ccc1Cl)NC2=O)c1cc(F)cc(C(F)(F)F)c1 (centres unmarked) [Compound I-1227] | ≤ 100 |
| CS(=O)(=O)N1CC(c2cc(NC(=O)c3cc(F)cc(C(F)(F)F)c3)c3c(c2)C(=O)NC3c2cc(F)ccc2Cl)C1 (centres unmarked) [Compound I-1228] | ≤ 100 |
| O=C(Nc1cc(-c2ccc3ncnn3c2)nc2c1[C@H](c1cc(F)ccc1Cl)NC2=O)c1cc(F)cc(C(F)(F)F)c1 [Compound I-1229] | ≤ 100 |
| O=C(Nc1cc(-c2ccc3ncnn3c2)nc2c1[C@@H](c1cc(F)ccc1Cl)NC2=O)c1cc(F)cc(C(F)(F)F)c1 [Compound I-1230] | 100 to 500 |
| O=C(Nc1cc(-n2cnc3ncccc32)cc2c1C(c1cc(F)ccc1Cl)NC2=O)c1cc(F)cc(C(F)(F)F)c1 (centres unmarked) [Compound I-1233] | ≤ 100 |
| C=CCCCOc1cc(NC(=O)c2cc(F)cc(C(F)(F)F)c2)c2c(c1)C(=O)NC2c1cc(F)ccc1Cl (centres unmarked) [Compound I-1234] | 500 to 1000 |
| CN1CCN(Cc2cc(NC(=O)c3cc(F)cc(C(F)(F)F)c3)c3c(c2)C(=O)NC3c2cc(F)ccc2Cl)CC1=O (centres unmarked) [Compound I-1235] | 100 to 500 |
| O=C(Nc1cc(N2CCn3ccnc3C2)cc2c1C(c1cc(F)ccc1Cl)NC2=O)c1cc(F)cc(C(F)(F)F)c1 (centres unmarked) [Compound I-1236] | ≤ 100 |
| O=C(Nc1cc(N2CCn3cncc3C2)cc2c1C(c1cc(F)ccc1Cl)NC2=O)c1cc(F)cc(C(F)(F)F)c1 (centres unmarked) [Compound I-1237] | ≤ 100 |
| COC(=O)c1cc(Nc2cccc3c2C(c2cc(F)ccc2Cl)NC3=O)ncc1C(F)(F)F (centres unmarked) [Compound I-1238] | 1000 to 10000 |
| Cc1cc(=O)[nH]cc1C(=O)Nc1cc(Br)cc2c1C(c1cc(F)ccc1Cl)NC2=O (centres unmarked) [Compound I-1240] | 10000 to 100000 |
| O=C(Nc1cc(Br)cc2c1C(c1cc(F)ccc1Cl)NC2=O)c1cc(F)cc(COC(F)(F)F)c1 (centres unmarked) [Compound I-1241] | 1000 to 10000 |
| O=C(Nc1cc(Br)cc2c1C(c1cc(F)ccc1Cl)NC2=O)c1cc(Cl)cc2c1NCCO2 (centres unmarked) [Compound I-1242] | 1000 to 10000 |
| O=C(Nc1cc(C#Cc2ccn[nH]2)cc2c1C(c1cc(F)ccc1Cl)NC2=O)c1cc(F)cc(C(F)(F)F)c1 (centres unmarked) [Compound I-1244] | ≤ 100 |
| Cc1ncc(Nc2cc(NC(=O)c3cc(F)cc(C(F)(F)F)c3)c3c(c2)C(=O)NC3c2cc(F)ccc2Cl)cn1 (centres unmarked) [Compound I-1245] | ≤ 100 |
| O=C(Nc1cc(Oc2ncncc2F)cc2c1C(c1cc(F)ccc1Cl)NC2=O)c1cc(F)cc(C(F)(F)F)c1 (centres unmarked) [Compound I-1246] | ≤ 100 |
| Cn1cncc1C#Cc1cc(NC(=O)c2cc(F)cc(C(F)(F)F)c2)c2c(c1)C(=O)NC2c1cc(F)ccc1Cl (centres unmarked) [Compound I-1247] | ≤ 100 |
| O=C(Nc1cc(N2CCS(=O)(=O)CC2)cc2c1C(c1cc(F)ccc1Cl)NC2=O)c1cc(F)cc(C(F)(F)F)c1 (centres unmarked) [Compound I-1248] | ≤ 100 |
| CN1CCN(c2cc(NC(=O)c3cc(F)cc(C(F)(F)F)c3)c3c(c2)C(=O)NC3c2cc(F)ccc2Cl)CC1=O (centres unmarked) [Compound I-1249] | ≤ 100 |
| O=C(Nc1cc(-n2ccc3ncccc3c2=O)cc2c1C(c1cc(F)ccc1Cl)NC2=O)c1cc(F)cc(C(F)(F)F)c1 (centres unmarked) [Compound I-1250] | ≤ 100 |
| CC(=O)N1CC(Oc2cc(NC(=O)c3cc(F)cc(C(F)(F)F)c3)c3c(c2)C(=O)NC3c2cc(F)ccc2Cl)C1 (centres unmarked) [Compound I-1251] | 100 to 500 |
| O=C(Nc1cc(OC2CNC2)cc2c1C(c1cc(F)ccc1Cl)NC2=O)c1cc(F)cc(C(F)(F)F)c1 (centres unmarked) [Compound I-1252] | 100 to 500 |
| CC(C)Oc1cc(NC(=O)c2cc(F)cc(C(F)(F)F)c2)c2c(c1)C(=O)NC2c1cc(F)ccc1Cl (centres unmarked) [Compound I-1253] | ≤ 100 |
